Results from US20080194552A1, “Aminopyrimidine Derivatives With Tie2 Inhibiting Activity” (ASTRAZENECA AB, priority 2005, published 2008).

Target: T1, Tie2 receptor tyrosine kinase (Homo sapiens, UniProt Q02763)
T1 construct: one can use natural cell lines or primary cells which are known to express the receptor of choice; endogenous in cells; host or cells: EA.hy926/B3 cells (HUVEC named as an alternative)
Experiment: Cellular Tie2 autophosphorylation assay
Format: cell-based
Settings: whole cells, e.g. Ang1 ligand stimulated EA.hy926/B3 cells; read-out: IC50 Inhibition of autophosphorylation of Tie2 receptor tyrosine kinase
Description: The following assay can be used to measure the effects of the compounds of the present invention as inhibitors of Tie2 autophosphorylation in whole cells.
Cellular Tie2 Autophosphorylation Assay
This assay is based on measuring the ability of compounds to inhibit autophosphorylation of the Tie2 receptor which normally leads to the production of “activated” receptor that in turn initiates the particular signal transduction pathways associated with the receptor function.
Autophosphorylation can be achieved by a number of means. It is known that expression of recombinant kinase domains in baculoviral systems can lead to the production of phosphorylated and activated receptor. […]
Naturally if the ligand is available one can use natural cell lines or primary cells which are known to express the receptor of choice and simply stimulate with ligand to achieve ligand induced phosphorylation. The ability of compounds to inhibit autophosphorylation of the Tie2 receptor, which is expressed for example in EA.hy926/B3 cells (supplied by J. McLean/B. Tuchi, Univ. of N. Carolina at Chapel Hill, CB-4100, 300 Bynum Hall, Chapel Hill, N.C. 27599-41000, USA) or primary HUVEC (human umbilical vein endothelial cells—available from various commercial sources), can measured by this assay. […]

T1 sequence (Q02763 23-1124): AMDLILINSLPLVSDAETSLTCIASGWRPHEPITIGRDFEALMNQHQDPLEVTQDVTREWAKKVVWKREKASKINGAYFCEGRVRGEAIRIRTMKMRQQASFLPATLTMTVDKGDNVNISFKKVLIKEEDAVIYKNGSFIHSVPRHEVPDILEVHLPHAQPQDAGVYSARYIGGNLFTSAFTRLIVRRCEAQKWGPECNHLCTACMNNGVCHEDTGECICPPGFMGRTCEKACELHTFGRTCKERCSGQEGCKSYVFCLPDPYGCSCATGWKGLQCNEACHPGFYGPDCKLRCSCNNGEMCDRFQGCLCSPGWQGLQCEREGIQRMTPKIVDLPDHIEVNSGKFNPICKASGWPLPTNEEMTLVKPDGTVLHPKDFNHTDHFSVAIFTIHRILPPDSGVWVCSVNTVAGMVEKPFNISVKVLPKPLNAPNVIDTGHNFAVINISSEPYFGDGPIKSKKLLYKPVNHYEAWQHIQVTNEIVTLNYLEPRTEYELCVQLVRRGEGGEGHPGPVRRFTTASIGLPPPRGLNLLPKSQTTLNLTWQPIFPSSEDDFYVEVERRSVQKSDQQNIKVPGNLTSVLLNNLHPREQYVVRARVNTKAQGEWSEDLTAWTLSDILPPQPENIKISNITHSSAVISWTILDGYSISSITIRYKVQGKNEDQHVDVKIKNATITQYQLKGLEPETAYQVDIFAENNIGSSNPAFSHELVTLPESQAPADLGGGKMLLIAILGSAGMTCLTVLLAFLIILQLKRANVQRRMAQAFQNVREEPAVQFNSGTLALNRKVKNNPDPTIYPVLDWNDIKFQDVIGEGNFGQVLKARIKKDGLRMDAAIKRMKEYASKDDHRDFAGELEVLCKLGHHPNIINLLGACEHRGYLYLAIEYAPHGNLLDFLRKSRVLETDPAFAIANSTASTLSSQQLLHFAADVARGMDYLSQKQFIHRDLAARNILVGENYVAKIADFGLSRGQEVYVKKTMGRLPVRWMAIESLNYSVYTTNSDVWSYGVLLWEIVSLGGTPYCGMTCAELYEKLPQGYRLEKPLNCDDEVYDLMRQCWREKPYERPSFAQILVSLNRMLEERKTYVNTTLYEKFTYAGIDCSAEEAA

| Compound | IC50 [nM] |
| --- | --- |
| Nc1ncc(C#Cc2csc(C(=O)Nc3cc(C(F)(F)F)ccc3F)c2)cn1 [Example 2, 4-[(2-Aminopyrimidin-5-yl)ethynyl]-N-[2-fluoro-5-(trifluoromethyl)phenyl]thiophene-2-carboxamide] | 26 |
| Nc1ncc(C#Cc2ccc(C(=O)Nc3cc(C(F)(F)F)ccc3F)s2)cn1 [Example 1, 5-[(2-Aminopyrimidin-5-yl)ethynyl]-N-[2-fluoro-5-(trifluoromethyl)phenyl]thiophene-2-carboxamide] | 16 |
